Marks after values point to notes of the source that are not given here.
Experiments:
[1] = tested on: CXCL8/IL-8 release, SKOV3 ovarian cells; assay: LPA-induced IL-8 release in SKOV3 cells; type: cell-based, human; details: 1 uM LPA alone (stimulus)
Procedure: (§1) Anti-LPA antibodies inhibit the LPA-dependant release of human CXCL8/IL-8 in conditioned media of SKOV3 ovarian cells. SKOV3 cells (Lot No 4255558, passage 14) were harvested with 2 ml of 1× Trypsin EDTA (Mediatech Inc, Cat. No 25-053-CV) and resuspended in 8 ml of complete medium (10% FBS, Mediatech Inc. Cat. no 35-011-CV). The cells were centrifuged for 5 min ([…]) and re-suspended in 5 ml of complete medium. Cells were counted in duplicate with 0.4% Trypan blue (10 ul cells plus 90 ul Trypan blue, Invitrogen, Cat. No 15250-061) using a hemocytometer. In a 96-well plate, 1×10^5 cells per well were seeded (final volume 100 ul/well). The cells were allowed to attach and form a confluent monolayer by incubating overnight at 37° C. On the following day, cells were gently washed two times with minimum media (1 mg/ml BSA in McCoy's medium with L-glutamine, Mediatech, Cat. No 10-050-CV). […] The CXCL8/IL-8 levels in each supernatant were measured using the Quantikine human CXCL8/IL-8 ELISA kit according to vendor instructions (R&D Systems, Minneapolis Minn., Cat. No D8000C). The IL-6 levels were measured by ELISA using the Quantikine human IL-6 immunoassay kit (R&D systems, Cat. No. D6050). Data were analyzed by one-way ANOVA followed by Bonferroni's post test and expressed as human IL-8 or human IL-6 fold increase.

[2] = tested on: IL-6 release, SKOV3 ovarian cells; assay: LPA-induced IL-6 release in SKOV3 cells; type: cell-based, human; details: 1 uM LPA alone (stimulus)
Procedure: as §1

SKOV3 cells = assay: Tumor cell migration in the scratch assay; type: cell-based; details: 17 hr
Procedure: SKOV3 cells were plated at 15,000 cells per well in a 96-well plate. The following day the cells were serum starved in minimal media (McCoy's Media 5a, adjusted to contain L-Glutamine, 2.2 g/L Sodium Bicarbonate, 1% penicillin/streptomycin and 1 mg/ml BSA) for 24 hrs. At time 0 cells were scratched with a p200 pipet tip down the center of each well, washed with minimal media and pictures were taken prior to treatment. Cells were then treated with LPA (C18:1) at 0.2 uM, 1.0 uM and 10 uM concentrations which were pre-incubated at 37° C. with […] in the presence or absence of antibody at 150 ug/ml. Positive control (10% FBS treated cells) and antibody alone added to 1 uM LPA, were also tested. Cells were stimulated for 17 hrs at 37° C. in a 5% CO2 incubator. Pictures were taken again 17 hr post-treatment and % wound closure was measured by adjusting pictures to the same size and measuring the width of the scratch at time 0 and time 17 hr with a ruler. Data were analyzed by Student's t-test.

ovarian tumor SKOV3 = assay: SKOV3 ovarian tumor progression and cytokines in nude mice; type: in vivo
Procedure: Human mAb LT3015 reduced ovarian tumor SKOV3 progression and circulating cytokines in biological fluids. Nude mice were engrafted with either 10 mg/kg LT3015, vehicle, or 2 mg/kg paclitaxel (Taxol). After 56 days, mice were sacrificed and the peritoneal cavities were analyzed for tumor burden and ascites fluid accumulation. Tumors were harvested and final tumor weights were determined along with ascites volumes. Data were analyzed by ANOVA and student's t-test analysis. […] Serum and ascites levels of IL-6, IL-8, GM-CSF and VEGF were measured using ELISA kits from R&D systems, Minneapolis Minn.

Molecule: Lysophosphatidic acid [LPA]
- Human IL-8 Fold Increase (approx). [1]: ~7.1## fold
- Human IL-6 Fold Increase (approx). [2]: ~29## fold
- Percent wound closure (approx.) (SKOV3 cells; 0.2 uM LPA): ~65%
- Percent wound closure (approx.) (SKOV3 cells; 1.0 uM LPA): ~81%
- Percent wound closure (approx.) (SKOV3 cells; 10 uM LPA): ~89%

Molecule: CC(=O)O[C@H]1C(=O)[C@@]2(C)[C@H]([C@H](OC(=O)c3ccccc3)[C@]3(O)C[C@H](OC(=O)[C@H](O)[C@@H](NC(=O)c4ccccc4)c4ccccc4)C(C)=C1C3(C)C)[C@]1(OC(C)=O)CO[C@@H]1C[C@@H]2O [Taxol, paclitaxel]
- Tumor Burden (ovarian tumor SKOV3; 56 days, LT3015 10 mg/kg, Taxol 2 mg/kg, mean ± S.E., vehicle 1274 ± 209): 381 ± 73 mg
- % Reduction (tumor burden) (ovarian tumor SKOV3; 56 days, LT3015 10 mg/kg, Taxol 2 mg/kg, versus vehicle): 70.1%
- GM-CSF-ascites (ovarian tumor SKOV3; LT3015 10 mg/kg (N = 4), Taxol 2 mg/kg (N = 1), vehicle 1200 ± 248.2): 2054 ± 0 pg/mL
- IL-8-ascites (ovarian tumor SKOV3; LT3015 10 mg/kg (N = 4), Taxol 2 mg/kg (N = 1), vehicle 2097 ± 132.1): 2187 ± 0 pg/mL
- VEGF-ascites (ovarian tumor SKOV3; LT3015 10 mg/kg (N = 4), Taxol 2 mg/kg (N = 1), vehicle 3341 ± 202.5): 3344 ± 0 pg/mL
- Ascites volume (ovarian tumor SKOV3; LT3015 10 mg/kg, Taxol 2 mg/kg, vehicle 3.563 ± 1.144): 0.2 ± 0.0 mL
- IL-6-serum (ovarian tumor SKOV3; LT3015 10 mg/kg, Taxol 2 mg/kg, vehicle 84.56 ± 16.62): 29.19 ± 9.568 pg/mL
- GM-CSF-serum (ovarian tumor SKOV3; LT3015 10 mg/kg, Taxol 2 mg/kg, vehicle 320.5 ± 43.18): 340.2 ± 62.98 pg/mL
- IL-8-serum (ovarian tumor SKOV3; LT3015 10 mg/kg, Taxol 2 mg/kg, vehicle 687.6 ± 114.1): 234.7 ± 83.04 pg/mL
- Ascites presence (ovarian tumor SKOV3; animals with ascites / animals, LT3015 10 mg/kg, Taxol 2 mg/kg, vehicle 6/11): 1/7

Source: patent publication US20120034631A1, “ANTI-LYSOPHOSPHOLIPID ANTIBODY DESIGN USING ANTIBODY STRUCTURES” (priority 2010, published 2012)
